The target in the assay is T1, human P2X3 receptor (Homo sapiens, UniProt P56373).
T1 construct: expressed in transfected cells; host or cells: CHO-K1
T1 sequence (P56373 1-397): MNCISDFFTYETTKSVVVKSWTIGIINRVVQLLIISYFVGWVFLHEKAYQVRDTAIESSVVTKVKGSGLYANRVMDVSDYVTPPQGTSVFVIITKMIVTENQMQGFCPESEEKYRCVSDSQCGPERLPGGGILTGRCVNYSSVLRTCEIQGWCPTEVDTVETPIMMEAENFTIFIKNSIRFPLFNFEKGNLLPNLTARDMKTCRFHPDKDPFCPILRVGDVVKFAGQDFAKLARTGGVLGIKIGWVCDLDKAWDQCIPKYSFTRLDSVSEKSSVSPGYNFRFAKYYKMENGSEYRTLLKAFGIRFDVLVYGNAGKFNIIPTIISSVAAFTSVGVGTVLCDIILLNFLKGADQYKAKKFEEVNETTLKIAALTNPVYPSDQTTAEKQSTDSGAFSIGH
The assay can be described thus: Calcium luminescence measurement: human P2X3 receptor activity inhibition (CHO-K1 cells, photoprotein readout, FLEXSTATION). The class given is cell-based. The settings on record: CHO-K1 cells co-expressing human P2X3 and Ca2+ sensitive photoprotein; agonist α,β-Met-ATP; read-out: h-P2X3 IC50. As for the experimental part:
Determination of human P2X3 receptor activity inhibition
The assay for the human purinergic P2RX3 receptor has been adapted to the internal screening instrumentation using the FLEXSTATION as reader and a photoprotein as luminescent readout. The assay consists of CHO-K1 cells recombinantly co-expressing the human P2rx3 receptor and a Ca^2+ sensitive photoprotein. Cells are maintained in DMEM F-12 (1:1) mixture (LONZA cat. n° BE04-687F/U1) supplemented with 9 mL of 100 mM Sodium Pyruvate (LONZA cat. n° BE13-115E), 29 mL of 7.5% Sodium Bicarbonate (LONZA cat. n° BE17-613E), 5.5 mL of 1 M Hepes (LONZA cat. n° BE17-737E), 5 mL of 100X Penicillin/Streptomycin mixture (LONZA cat. n° DE17-602E) and 50 mL of Fetal Bovine Serum (Sigma cat. n° F7524), 1 mg/mL G418 disulfate salt (Sigma cat. n° G8168) and 5 µg/ml Puromycin dihydrochloride (Sigma cat. n° P9620). Standard propagation conditions consist of seeding in a P75 flask twice a week, recovering about 20×10^6 cells, corresponding to about 80% confluency. Cells were seeded into black-walled clear bottom 96 well plates at a density of 40000 cells/well in a complete medium. After 24 h the culture medium was replaced with 200 µL/well of coelenterazine in Tyrode's buffer (Standard Tyrode's buffer: in house solution, 130 mM NaCl, 5 mM KCl, 2 mM CaCl2, 5 mM NaHCO3, 1 mM MgCl2, 20 mM HEPES, pH 7.4). Coelenterazine was purchased from BIOSYNTH (cat. n° C-7001). 10 mM stock solution was prepared in DMSO and glutathione and stored at -20° C. The plates were incubated for 4 hours at 37°C, and injected with 10 µL/well of test compounds at 25X concentration in Tyrode's buffer. After 4 minutes a second injection of 50 µL/well of 5X α,β-Met-ATP in Tyrode's buffer (α,β-Met-ATP: from Tocris (cat. n° 3209), was dissolved at 100 mM in water and stored in aliquots at -20°C) was performed and the signal of the emitted luminescence was recorded by FLEXSTATION III (Molecular Devices). […]
The inhibition curves of the tested compounds at cloned P2X3 receptor were determined by nonlinear regression analysis using software Prism 5.0 (Graphpad, San Diego, CA). The IC50 values and pseudo-Hill slope coefficients were estimated by the program.
In the case of “3-tert-Butyl-6-[(4-chlorophenyl)methyl] -8-[4-(hydroxymethyl)piperidin-1-yl]pyrido[2,3-e][1,2,4]triazolo[4,3-c]pyrimidin-5(6H)-one [Example 41]”, the IC50 came out at 9.5 nM. The same measure for `CC(C)[C@H]1CN2C(=O)N(Cc3ccc(Cl)cc3)c3cc(N4CCOCC4)cnc3C2=N1` (single isomer, unassigned) [Example 10]: 1080 nM. Then `CC(C)[C@@H]1CN2C(=O)N(Cc3ccc(Cl)cc3)c3cc(N4CCOCC4)cnc3C2=N1` (single isomer, unassigned) [Example 11], with 113 nM; and `CC(C)C1C(=O)N=C2c3ncc(N4CCOCC4)cc3N(Cc3ccc(Cl)cc3)C(=O)N21` (single isomer, unassigned) [Example 23, (R or S)-6-[(4-Chlorophenyl)methyl]-8-(morpholin-4-yl)-3-(propan-2-yl)imidazo[1,2-c]pyrido[2,3-e]pyrimidine-2,5(3H,6H)-dione], with 64.7 nM; and `CC(C)C1C(=O)N=C2c3ncc(N4CCOCC4)cc3N(Cc3ccc(Cl)cc3)C(=O)N21` (single isomer, unassigned) [Example 24, (S or R)-6-[(4-Chlorophenyl)methyl]-8-(morpholin-4-yl)-3-(propan-2-yl)imidazo[1,2-c]pyrido[2,3-e]pyrimidine-2,5(3H,6H)-dione], with 56.2 nM.

Take `CC(C)C1CN=C2c3ncc(N4CCOCC4)cc3N(Cc3ccc(Cl)cc3)C(=O)N21` (stereo not drawn) [Example 1, 6-(4-Chlorobenzyl)-8-(morpholin-4-yl)-3-(propan-2-yl)-2,6-dihydroimidazo[1,2-c]pyrido[2,3-e]pyrimidin-5(3H)-one]: the IC50 came to 703 nM. `CC1(C)CN2C(=O)N(Cc3ccc(Cl)cc3)c3cc(N4CCOCC4)cnc3C2=N1` [Example 2, 6-(4-Chlorobenzyl)-2,2-dimethyl-8-(morpholin-4-yl)-2,6-dihydroimidazo[1,2-c]pyrido[2,3-e]pyrimidin-5(3H)-one]: the IC50 was 1010 nM. Then `COc1cc(CN2C(=O)N3CC(C(C)(C)C)N=C3c3ncc(N4CCOCC4)cc32)cc(OC)c1` (stereo not drawn) [Example 3, 2-tert-Butyl-6-(3,5-dimethoxybenzyl)-8-(morpholin-4-yl)-2,6-dihydroimidazo[1,2-c]pyrido[2,3-e]pyrimidin-5(3H)-one], with 27.3 nM. Regarding `CC(C)(C)C1CN2C(=O)N(Cc3ccc(Cl)cc3)c3cc(N4CCOCC4)cnc3C2=N1` (stereo not drawn) [Example 4, 2-tert-Butyl-6-(4-chlorobenzyl)-8-(morpholin-4-yl)-2,6-dihydroimidazo[1,2-c]pyrido[2,3-e]pyrimidin-5(3H)-one], the IC50 was 181 nM. The same measure for `CC(C)C1CN2C(=O)N(Cc3ccc(Cl)cc3)c3cc(N4CCC(N)CC4)cnc3C2=N1` (stereo not drawn) [Example 7, 8-(4-Aminopiperidin-1-yl)-6-[(4-chlorophenyl)methyl]-2-(propan-2-yl)-2,6-dihydroimidazo[1,2-c]pyrido[2,3-e]pyrimidin-5(3H)-one]: 642 nM; for `CC(C)C1CN2C(=O)N(Cc3ccc(Cl)cc3)c3cc(N4CCNCC4)cnc3C2=N1` (stereo not drawn) [Example 8, 6-[(4-Chlorophenyl)methyl]-8-(piperazin-1-yl)-2-(propan-2-yl)-2,6-dihydroimidazo[1,2-c]pyrido[2,3-e]pyrimidin-5(3H)-one]: 1380 nM; for `CC(C)(CO)C1CN2C(=O)N(Cc3ccc(Cl)cc3)c3cc(N4CCOCC4)cnc3C2=N1` (stereo not drawn) [Example 12, 6-(4-Chlorobenzyl)-2-(1-hydroxy-2-methylpropan-2-yl)-8-(morpholin-4-yl)-2,6-dihydroimidazo[1,2-c]pyrido[2,3-e]pyrimidin-5(3H)-one]: 54 nM. The same measure for `CC(C)C1CN2C(=O)N(Cc3ccc(Cl)cn3)c3cc(N4CCOCC4)cnc3C2=N1` (stereo not drawn) [Example 13, 6-[(5-Chloropyridin-2-yl)methyl]-8-(morpholin-4-yl)-2-(propan-2-yl)-2,6-dihydroimidazo[1,2-c]pyrido[2,3-e]pyrimidin-5(3H)-one]: 865 nM; for `COc1ccc(CN2C(=O)N3CC(C(C)C)N=C3c3ncc(N4CCOCC4)cc32)nc1` (stereo not drawn) [Example 14, 6-[(5-Methoxypyridin-2-yl)methyl]-8-(morpholin-4-yl)-2-(propan-2-yl)-2,6-dihydroimidazo[1,2-c]pyrido[2,3-e]pyrimidin-5(3H)-one]: 822 nM. Then `CC(C)C1CN2C(=O)N(Cc3ccc(Cl)cc3)c3cc(NC(CO)CO)cnc3C2=N1` (stereo not drawn) [Example 15, 6-[(4-Chlorophenyl)methyl]-8-[(1,3-dihydroxypropan-2-yl)amino]-2-(propan-2-yl)-2,6-dihydroimidazo[1,2-c]pyrido[2,3-e]pyrimidin-5(3H)-one], with 11800 nM. Consider `CC(C)C1CN2C(=O)N(Cc3ccc(Cl)cc3)c3cc(NC4CCOCC4)cnc3C2=N1` (stereo not drawn) [Example 16, 6-[(4-Chlorophenyl)methyl]-8-[(oxan-4-yl)amino]-2-(propan-2-yl)-2,6-dihydroimidazo[1,2-c]pyrido[2,3-e]pyrimidin-5(3H)-one], for which the half-maximal inhibitory concentration (IC50) amounted to 872 nM. Then `CC(C)C1C(=O)N=C2c3ncc(N4CCC(=O)CC4)cc3N(Cc3ccc(Cl)cc3)C(=O)N21` (stereo not drawn) [Example 25, 6-[(4-Chlorophenyl)methyl]-8-(4-oxopiperidin-1-yl)-3-(propan-2-yl)imidazo[1,2-c]pyrido[2,3-e]pyrimidine-2,5(3H,6H)-dione], with 123 nM. With `COc1ccc(Cn2c(=O)n3c(C(C)(C)OC)nnc3c3ncc(N4CCOCC4)cc32)cc1` [Example 33, 6-(4-Methoxybenzyl)-3-(2-methoxypropan-2-yl)-8-(morpholin-4-yl)pyrido[2,3-e][1,2,4]triazolo[4,3-c]pyrimidin-5(6H)-one], the IC50 was 301 nM. The same measure for `COc1ccc(Cn2c(=O)n3c(C(C)(C)C)nnc3c3ncc(N4CCC(OC)CC4)cc32)cc1` [Example 37, 3-tert-Butyl-6-[(4-methoxyphenyl)methyl] -8-(4-methoxypiperidin-1-yl)pyrido[2,3-e][1,2,4]triazolo[4,3-c]pyrimidin-5(6H)-one]: 339 nM; for `CC(C)c1nnc2c3ncc(N4CCC(=O)CC4)cc3n(Cc3ccc(Cl)cc3)c(=O)n12` [Example 39, 6-[(4-Chlorophenyl)methyl]-8-(4-oxopiperidin-1-yl)-3-(propan-2-yl)pyrido[2,3-e][1,2,4]triazolo[4,3-c]pyrimidin-5(6H)-one]: 1260 nM; for `COc1ccc(Cn2c(=O)n3c(C(C)(C)C)nnc3c3ncc(N4CCC(N)CC4)cc32)cc1` [Example 40, 8-(4-Aminopiperidin-1-yl)-3-tert-butyl-6-[(4-methoxyphenyl)methyl]pyrido[2,3-e][1,2,4]triazolo[4,3-c]pyrimidin-5(6H)-one]: 491 nM. Then `COc1cc(Cn2c(=O)n3c(C(C)(C)C)nnc3c3ncc(N4CCOCC4)cc32)ccc1F` [Example 42, 3-tert-Butyl-6-[(4-fluoro-3-methoxyphenyl)methyl] -8-(morpholin-4-yl)pyrido[2,3-e][1,2,4]triazolo[4,3-c]pyrimidin-5(6H)-one], with 1170 nM; and `COC(C)(C)c1nnc2c3nnc(N4CCN(C(=O)OC(C)(C)C)CC4)cc3n(Cc3ccc(Cl)cc3)c(=O)n12` [Example 45, tert-Butyl 4-{6-[(4-chlorophenyl)methyl]-3-(2-methoxypropan-2-yl)-5-oxo-5,6-dihydro[1,2,4]triazolo[4',3':1,6]pyrimido[5 ,4-c]pyridazin-8-yl}piperazine-1-carboxylate], with 2550 nM. Then `COC(C)(C)c1nnc2c3nnc(N4CCNCC4)cc3n(Cc3ccc(Cl)cc3)c(=O)n12` [Example 46, 6-[(4-Chlorophenyl)methyl]-3-(2-methoxypropan-2-yl)-8-(piperazin-1-yl)[1,2,4]triazolo[4',3': 1,6]pyrimido[5,4-c]pyridazin-5(6H)-one], with 322 nM.

One may read the IC50 as the concentration needed to halve the response being measured.

Values taken from patent publication EP4389746A2, “P2X3 RECEPTOR ANTAGONISTS” (Recordati Industria Chimica E Farmaceutica SPA, priority 2022, dated 2024).
